According to patent US20250340543A1, “GPR84 ANTAGONISTS AND USES THEREOF” (Liminal BioSciences Limited, priority 2021, published 2025):

Biological target: GPR84 (Homo sapiens (Human), UniProt Q9NQS5)
Test: Gai biosensor BRET assay (GPR84-mediated activation of Gai, antagonist mode against agonist ZQ-16)
Format: cell-based
Conditions: HEK293 cells, 200 nmol/L GPR84 agonist ZQ-16, read-out: hGPR84 IC50
Description: Background—The following assays can be used for determination of GPR84 activation in living HEK293 cells. […] The Gai biosensor consists of a Rluc8-tagged Gαi2 subunit, a GFP10-tagged Gγ2 subunit, and an untagged Gβ1. […] Moreover, signaling functions of GPCRs are tightly regulated by endocytosis, the targeting of receptors to endosomes and their sorting to lysosomes or recycling to the plasma membrane. […] Agonist stimulation of GPR84—Rluc8 leads to trafficking of the receptor to EEs, and ensuing increase of the donor concentration relative to the rGFP-FYVE acceptor anchored in the same cellular compartment, and thus results in an increase in BRET signal.
Plasmids—The cDNA clones for human GPR84 receptor, human Gαi2, Gβ1, and Gγ2 were obtained from the cDNA Resource Center (www.cdna.org). GFP10 (F64L, S147P, S202F and H231L variant of Aequorea victoria Green Fluorescent Protein) gBlocks gene fragments (Integrated DNA Technologies, IA) and linker were inserted in frame at the N-terminus of human Gγ2. Rluc8 (A55T, C124A, S130A, K136R, A143M, M185V, M253L, and S287L variant of the Renilla renformis luciferase) gBlocks gene fragment was inserted with linkers in frame in between residues 91 and 92 of Gαi2 or at the C-terminus of GPR84. The FYVE domain from human endofin (residues Q739 to K806) attached in frame at the C terminus of a humanized Renilla GFP (rGFP), were synthesized as gBlocks gene fragments.
Bioluminescence Resonance Energy Transfer (BRET) Measurement—HEK293 cells were transfected with GPR84—Rluc8 and rGFP-FYVE for the EEs trafficking biosensor or with GPR84, Gαi2—Rluc8, GFP10-Gγ2, and Gβ1 for the Gai biosensor. The following day, transiently transfected cells were seeded in 96-well white clear bottom microplates coated with poly-D-lysine and left in culture for 24 hours. Cells were washed once with Tyrode's buffer (140 mmol/L NaCl, 1 mmol/L CaCl2, 2.7 mmol/L KCl, 0.49 mmol/L MgCl2, 0.37 mmol/L NaH2PO4, 5.6 mmol/L glucose, 12 mmol/L NaHCO3, and 25 mmol/L HEPES, pH 7.5) before performing assays in Tyrode's buffer. Test compounds were incubated with cells for 5 (Gai) or 15 (EEs) minutes at 37° C. before addition of 200 nmol/L of the GPR84 agonist ZQ-16 (2-(Hexylthio)-6-hydroxy-4(3H)-pyrimidinone) for 5 minutes at room temperature (Gai) or 30 minutes at 37° C. (EEs). The Rluc8 substrate coelenterazine 400A (Prolume, Lakeside, AZ) was added at a final concentration of […] and BRET readings were collected using an Infinite M1000 microplate reader (Tecan, Morrisville, NC). BRET^2 readings between Rluc8 and GFP10 or rGFP were collected by sequential integration of the signals detected in the 370 to 450 nm (Rluc8) and 510 to 540 nm (GFP10, rGFP) windows. The BRET signal was calculated as the ratio of light emitted by acceptor (GFP10, rGFP) over the light emitted by donor (Rluc8). The values were corrected to net BRET by subtracting the background BRET signal obtained in cells transfected with Rluc8 constructs alone. Ligand-promoted net BRET values were calculated by subtracting vehicle-induced net BRET from ligand-induced net BRET.

Sequence of GPR84 (Q9NQS5 whole entry): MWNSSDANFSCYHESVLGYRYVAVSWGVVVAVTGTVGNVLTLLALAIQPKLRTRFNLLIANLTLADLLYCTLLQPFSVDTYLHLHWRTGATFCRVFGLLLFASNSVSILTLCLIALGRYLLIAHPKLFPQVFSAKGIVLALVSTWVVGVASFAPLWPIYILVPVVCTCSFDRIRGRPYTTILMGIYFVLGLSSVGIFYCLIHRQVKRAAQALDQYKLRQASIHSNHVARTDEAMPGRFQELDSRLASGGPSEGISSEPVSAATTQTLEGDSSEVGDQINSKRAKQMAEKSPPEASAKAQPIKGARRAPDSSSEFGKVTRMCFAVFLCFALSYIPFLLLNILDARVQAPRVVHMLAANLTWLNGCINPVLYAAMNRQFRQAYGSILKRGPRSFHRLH

| IC50 [µM] | SMILES |
| --- | --- |
| > 25 | O=C(CC1CCOCC1)N1Cc2ccc(C#CC3CC3)cc2C1 [Compound I-180] |
| > 25 | O=C(CC1CCOCC1)N1CCc2cc(C#CC3CC3)ccc2C1 [Compound I-181] |
| 5 to 10 | Cc1ccc(-c2ccc3c(c2)OCCn2c-3cc(OCC3COCCO3)nc2=O)cn1 (stereo not shown) [Compound I-211] |
| < 5 | O=c1nc(OCC2COCCO2)cc2n1CCOc1cc(C#CC3CC3)ccc1-2 (stereo not shown) [Compound I-214] |

Same assay, conditions: compound tested at 1 μM (concentration code A*)

| inhibition at 1 µM [%] | SMILES |
| --- | --- |
| < 25 | O=C(NCC1CCCO1)N1CCc2cc(C#CC3CC3)ccc2C1 (stereo not shown) [Compound I-183] |
| < 25 | O=C(NCC1CCCO1)N1Cc2ccc(C#CC3CC3)cc2C1 (stereo not shown) [Compound I-184] |

Same assay, conditions: compound tested at 5 μM (concentration code C)

| inhibition at 5 µM [%] | SMILES |
| --- | --- |
| < 25 | COc1cc(OCC2COCCO2)cc(-c2ccc(OCC(F)(F)F)cc2)c1 (stereo not shown) [Compound I-166] |
| < 25 | Cc1ccc(-c2ccc(-c3ccc4oc(=O)n(CC5CCCCO5)c4c3)cc2)cn1 (stereo not shown) [Compound I-168] |
| < 25 | COc1ccc2c(-c3ccc(C#CC4CC4)cc3)nnn2c1 [Compound I-215] |

Same assay, conditions: compound tested at 10 μM (concentration code D)

| inhibition at 10 µM [%] | SMILES |
| --- | --- |
| < 25 | Cc1cc(OCC2COCCO2)cc(=O)n1Cc1cc(C#CC2CC2)ccc1F (stereo not shown) [Compound I-143] |
| > 75 | Cc1cc(OC[C@H]2CCCCO2)cc(=O)n1[C@H](C)c1ccc(C#CC2CC2)cc1 [Compound I-145] |
| < 25 | COc1ccc2nc(-c3ccc(C#CC4CC4)cc3)cn2c1 [Compound I-216] |
| < 25 | O=C(CC1CCOc2ccccc21)N1Cc2ccc(C#CC3CC3)cc2C1 (stereo not shown) [Compound I-217] |
| 50 to 75 | CC#Cc1ccc([C@@H](C)n2c(C)cc(OCC3COCCO3)cc2=O)cc1 (stereo partly shown) [Compound I-219] |
| < 25 | Cc1cc(OCC2COCCO2)cc(=O)n1[C@H](C)c1ccc(N2CC(C)(CO)C2)cc1 (stereo partly shown) [Compound I-224] |
| 25 to 50 | Cc1cc(OCC2COCCO2)cc(=O)n1-c1ccc(C#CC2CC2)cc1 (stereo not shown) [Compound I-225] |

The remaining lines, values behind:

| SMILES | inhibition at 10 µM [%] |
| --- | --- |
| Cc1cc(OCC2COCCO2)cc(=O)n1Cc1ccc(C#CCNCc2ccccc2)cc1 (stereo not shown) [Compound I-123] | < 25 |
| Cc1cc(OCC2COCCO2)cc(=O)n1Cc1cccc(N2CC(C)(C)C2)c1 (stereo not shown) [Compound I-146] | < 25 |
| Cc1cc(OCC2COCCO2)cc(=O)n1[C@H](C)c1ccc(C#CCNS(=O)(=O)C2CC2)cc1 (stereo partly shown) [Compound I-149] | < 25 |
| O=C(CC1CCCCO1)N1CCc2cc(C#CC3CC3)ccc2C1 (stereo not shown) [Compound I-187] | 25 to 50 |
| COc1ccc([C@@H](C)n2c(C)cc(OCC3COCCO3)cc2=O)cc1 (stereo partly shown) [Compound I-218] | 25 to 50 |
| Cc1cc(OCC2COCCO2)cc(=O)n1C(C)c1ccc(C#CC2CC2)s1 (stereo not shown) [Compound I-220] | < 25 |
| Cc1cc(OCC2COCCO2)cc(=O)n1C(C)c1cc(C#CC2CC2)cs1 (stereo not shown) [Compound I-221] | 25 to 50 |
| Cc1cc(OCC2COCCO2)cc(=O)n1-c1cccc(C#CC2CC2)c1 (stereo not shown) [Compound I-226] | 50 to 75 |

Same assay, conditions: compound tested at 12.5 μM (concentration code E)

| inhibition at 12.5 µM [%] | SMILES |
| --- | --- |
| < 25 | Cc1ccc(-c2ccc(-c3cc(OCC4CCCCO4)ncn3)cc2)cn1 (stereo not shown) [Compound I-124] |

Same assay, conditions: compound tested at 15 μM (concentration code F)

| inhibition at 15 µM [%] | SMILES |
| --- | --- |
| < 25 | FC(F)(F)COc1ccc(-c2cc(OCC3COCCO3)cc(C3CO3)c2)cc1 (stereo not shown) [Compound I-164] |
| 25 to 50 | O=C(CC1CCOCC1)N1CCc2cc(C#CC3CC3)ccc2C1 [Compound I-181] |
| < 25 | COc1ccc(OCC2COCCO2)cc1Cc1ccc(C#CC2CC2)cc1 (stereo not shown) [Compound I-210] |

Same assay, conditions: compound tested at 25 μM (concentration code G)

| inhibition at 25 µM [%] | SMILES |
| --- | --- |
| < 25 | Cc1cc(C#CC2CC2)ccc1-c1cc(OCC2COCCO2)n(C)c(=O)n1 (stereo not shown) [Compound I-126] |
| < 25 | C(#CC1CC1)c1ccc(-c2nccc(OCC3CCCCO3)n2)cc1 (stereo not shown) [Compound I-127] |
| < 25 | C(#CC1CC1)c1ccc(-c2ccnc(OCC3CCCCO3)n2)cc1 (stereo not shown) [Compound I-128] |
| < 25 | Cc1ccc(-c2ccc(-c3nccc(OCC4CCCCO4)n3)cc2)cn1 (stereo not shown) [Compound I-133] |
| < 25 | C(#CC1CC1)c1ccc(-c2cc(OCC3CCCCO3)cnn2)cc1 (stereo not shown) [Compound I-135] |
| < 25 | Cc1ccc(-c2ccc(-c3nc(OCC4COCCO4)cc(=O)[nH]3)cc2)cn1 (stereo not shown) [Compound I-139, 6-((1,4-dioxan-2-yl)methoxy)-2-(4-(6-methylpyridin-3-yl)phenyl)pyrimidin-4(3H)-one] |
| < 25 | COc1cc(OCC2COCCO2)cc(-c2ccc(OCC(F)(F)F)cc2)c1OC (stereo not shown) [Compound I-156] |
| < 25 | COc1cc(OCC2COCCO2)cc(-c2ccc(OCC(F)(F)F)cc2)c1C (stereo not shown) [Compound I-157] |
| < 25 | FC(F)(F)COc1ccc(-c2nc(OCC3COCCO3)cc3c2OCCO3)cc1 (stereo not shown) [Compound I-158] |
| < 25 | FC(F)(F)COc1ccc(-c2c(OCC3COCCO3)ncc3c2OCCO3)cc1 (stereo not shown) [Compound I-159] |
| < 25 | FC(F)(F)COc1ccc(-c2nc(OCC3COCCO3)cc3c2OCCC3)cc1 (stereo not shown) [Compound I-160] |
| < 25 | CN(C)C(=O)c1cc(OCC2COCCO2)cc(-c2ccc(OCC(F)(F)F)cc2)c1 (stereo not shown) [Compound I-162] |
| < 25 | O=c1oc2ccc(-c3ccc(C#CC4CC4)cc3)cc2n1CC1CCCCO1 (stereo not shown) [Compound I-167] |
| < 25 | O=c1oc2ccc(-c3ccc(C#CC4CC4)cc3)cc2n1CC1COCCO1 (stereo not shown) [Compound I-169] |
| < 25 | O=C(CC1COCCO1)N1Cc2ccc(C#CC3CC3)cc2C1 (stereo not shown) [Compound I-177] |
| 25 to 50 | O=C(CC1CCCCO1)N1Cc2ccc(C#CC3CC3)cc2C1 (stereo not shown) [Compound I-186] |
| < 25 | Cc1ccc(-c2ccc3c(c2)CN(C(=O)CC2CCCCO2)C3)cn1 (stereo not shown) [Compound I-197] |
| 25 to 50 | Cc1ccc(-c2ccc3c(c2)CCN(C(=O)CC2CCCCO2)C3)cn1 (stereo not shown) [Compound I-203] |
| 25 to 50 | O=c1nc(OCC2COCCO2)cc2n1CCOc1cc(Cl)ccc1-2 (stereo not shown) [Compound I-206] |
| > 75 | O=c1nc(OCC2COCCO2)cc2n1CCOc1cc(C#CC3CC3)ccc1-2 (stereo not shown) [Compound I-214] |

Further lines, the compound ahead of its results:

| SMILES | inhibition at 25 µM [%] |
| --- | --- |
| COc1cc(OCC2COCCO2)cc(-c2c(C)cc(OCc3ccccc3)cc2C)n1 (stereo not shown) [Compound I-125] | < 25 |
| FC(F)(F)COc1ccc(-c2cccc(OCC3CCCCO3)n2)cc1 (stereo not shown) [Compound I-129] | < 25 |
| COc1cc(OCC2COCCO2)cc(-c2ccc(C#CCNc3ccccc3)cc2)n1 (stereo not shown) [Compound I-130] | < 25 |
| COc1cnc(OCC2COCCO2)c(-c2ccc(OCC(F)(F)F)cc2)c1OC (stereo not shown) [Compound I-131] | < 25 |
| COc1cc(OCC2COCCO2)nc(-c2ccc(OCc3ccccn3)cc2C)n1 (stereo not shown) [Compound I-134] | < 25 |
| Cn1c(OCC2COCCO2)cc(-c2ccc(C#CC3CC3)cc2)nc1=O (stereo not shown) [Compound I-136] | < 25 |
| CN1CCN(c2cc(OCC3COCCO3)nc(=O)n2C)CC1 (stereo not shown) [Compound I-137] | < 25 |
| CC(=O)N1CCN(c2cc(OCC3COCCO3)nc(=O)n2C)CC1 (stereo not shown) [Compound I-138] | < 25 |
| FC(F)(F)COc1ccc(-c2cc(OCC3COCCO3)cc3c2OCCO3)cc1 (stereo not shown) [Compound I-155] | < 25 |
| FC(F)(F)COc1ccc(-c2cc(Cl)cc(OCC3COCCO3)c2)cc1 (stereo not shown) [Compound I-161] | < 25 |
| FC(F)(F)COc1ccc(-c2cc(OCC3COCCO3)cc(C3COC3)c2)cc1 (stereo not shown) [Compound I-163] | < 25 |
| FC(F)(F)COc1ccc(-c2cc(OCC3COCCO3)cc(C(F)(F)F)c2)cc1 (stereo not shown) [Compound I-165] | < 25 |
| C(#CC1CC1)c1ccc(Cc2cccc(OCC3COCCO3)c2)cc1 (stereo not shown) [Compound I-174] | < 25 |
| Cc1ccc(-c2ccc(Cc3cccc(OCC4COCCO4)c3)cc2)cn1 (stereo not shown) [Compound I-176] | < 25 |
| O=C(CC1CCOCC1)N1Cc2ccc(C#CC3CC3)cc2C1 [Compound I-180] | 50 to 75 |
| Cc1ccc(-c2ccc3c(c2)OCCn2c-3cc(OCC3COCCO3)nc2=O)cn1 (stereo not shown) [Compound I-211] | 25 to 50 |
